Legend:
[1] = system: disseminated colorectal cancer; assay: Clinical outcome (response and survival) to protracted infusion of 5-FU in colorectal cancer patients by TS genotype; format: in vivo, human
Experimental: To explore the role of SNP as a predictive marker, 40 patients were evaluated with disseminated colorectal cancer (SWOG 9420 and 3C-92-2) for response and survival to protracted infusion of 5-fluorouracil. The distribution of the TS tandem repeat polymorphism was as follows: 2R/2R 20% (8/40), 2R/3R 50% (20/40), and 3R/3R 30% (12/40). […] This relationship also lacked statistical significant (P=0.14, Logrank Test).
Patient samples were re-classified into two groups based on predicted high and low TS expression using the tandem repeat polymorphism and the SNP. Since it was hypothesized that the SNP, or variant 3R (3RV) allele, would decrease the TS gene expression of a 3R allele, 21 patients were grouped with genotypes of 2R/2R, 2R/3RV and 3RV/3RV into the predicted “low TS expression” group (Group A) and 19 patients with 2R/3R, 3R/3RV, and 3R/3R into the predicted “high TS expression” group (Group B). These groups were then re-evaluated for an association between TS genotypes and clinical outcome to 5-FU chemotherapy.
The presence of the new SNP within the TS gene was confirmed in Non-Hispanic Whites. Individuals (disease-free controls) were initially recruited for a cancer case-control study in California as described in Castelao et al., 2001. Patients included in this study has metastatic colorectal cancer and were enrolled in the following protocols: Southwest Oncology Group protocol 9420 (19 patients, 5-FU doses used: CI (continuous infusion) 300 mg/m^2/d v. CI 2600 mg/m^2/d q weekly) opened for accrual in May 1995 and closed in May 1999; and the University of Southern California protocol: 3C-92-2 (21 patients, 5-FU doses used: CI 200 mg/m^2/d q weekly for three weeks followed by one week rest) opened for accrual in September 1992 and closed in June 1995. All patients signed an informed consent to participate in the clinical trial and for evaluation of the TS polymorphism. Genotyping for the TS polymorphism was performed on paraffin-embedded tissues in all patients.
All patients had bi-dimensionally measurable disease at the time of protocol entry. Responders to therapy were classified as those patients whose tumor burden (the sum, overall measurable lesions of the products of the largest diameter and its perpendicular diameter) decreased by 50% or more for at least six weeks. Progressive disease was defined as 25% or more increase in tumor burden (compared to the smallest measurement) or the appearance of new lesions.
Survival was computed as the number of months from the initiation of chemotherapy with 5-FU to death of any cause. Patients who were alive at the last follow-up evaluation were censored at that time.
Contingency tables and Fisher's exact test (Metha et al., 1983) were used to summarize the association of response (grouped as response, stable disease, and progressive disease) to 5-FU with the TS genotypes. Kaplan-Meier plots (Kaplan et al., 1958) and the log-rank test (Miller et al., 1981) were used to compare survival of patients according to TS genotypes. Median survival was calculated based on the Kaplan-Meier estimator. All p-values are two-sided.

[2] = target: T1, USF-1 phosphorylated by cdc2/p34 (Homo sapiens, UniProt P22415 P22415:1-310); assay: EMSA; consensus probe; sequence taken from the listed USF-1 specific oligonucleotide; details: tags: N-terminal 6xHis (pProEX-HTb, E. coli), in vitro phosphorylated with cdc2/p34; chain copies: 2; label: 32P when used as probe
T1 sequence (P22415 whole entry, one chain of several): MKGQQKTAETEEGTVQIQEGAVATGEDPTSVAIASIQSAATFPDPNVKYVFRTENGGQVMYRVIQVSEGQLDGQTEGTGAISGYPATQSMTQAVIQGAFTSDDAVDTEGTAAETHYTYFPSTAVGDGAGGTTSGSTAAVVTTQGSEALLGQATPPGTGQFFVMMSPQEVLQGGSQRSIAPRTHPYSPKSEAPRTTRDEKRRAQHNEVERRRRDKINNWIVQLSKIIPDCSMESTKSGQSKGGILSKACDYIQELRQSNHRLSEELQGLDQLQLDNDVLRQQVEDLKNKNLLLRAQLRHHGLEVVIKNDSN
Experimental: When both forms of USF-1 were used in an EMSA assay utilizing the perfect USF-1 consensus element as a probe, only the phosphorylated form was able to bind (FIG. 3B, lanes 2 and 3). Gel mobility shift analyses were performed using recombinant USF-1 with a ³²P-labeled USF-1 specific consensus probe containing an intact E-box site. Lane 1 contained only free probe. Lane 2 was 30 ng of recombinant phospho-USF-1 incubated with probe in the absence of unlabeled competitor oligonucleotides. Lane 3 contained 30 ng of recombinant unphosphorylated USF-1 incubated with probe in the absence of unlabeled specific competitor oligonucleotides. In lanes 4-5, phospho-USF-1 was pre-incubated with 500 molar excess of unlabeled USF-1 specific competitor oligonucleotide and 500 molar excess of nonspecific dIdC competitor, respectively.
Synthetic double-stranded oligonucleotides (Integrated DNA Technologies) corresponding to a wild type (R) or variant (RV) 28 bp tandem repeat sequence from the TS 5′ regulatory region were labeled with [γ-³²P] ATP (Amersham Pharmacia Biotech) according to the Gel-Shift Assay Kit protocol (Promega). For each gel shift reaction, 10,000 cpm of labeled probe 30 ng of recombinant USF-1 for 20 min at room temperature in a 20 μl reaction mixture containing 10 mM Tris-HCl, pH 7.5, 50 mM NaCl, 0.5 mM dithiothreitol, 0.5 mM EDTA, 4% glycerol, 1 mM MgCl₂ and 0.1 μg of poly(dIdC) DNA. […]

[3] = target: T1, USF-1 phosphorylated by cdc2/p34; assay: EMSA; 1 mM MgCl2, 50 mM NaCl, room temperature; abolished by USF-1 specific competitor; details: tags: N-terminal 6xHis (pProEX-HTb, E. coli), in vitro phosphorylated with cdc2/p34; chain copies: 2; label: 32P
Experimental: To determine the ability of the phosphorylated form of USF-1 to bind to its consensus element within the TS repeat, an EMSA assay was carried out using the ³²P-labeled 28 bp sequence as a probe corresponding to one tandem repeat containing an intact E-box site. Lane 1 was free probe. In lane 2, 30 ng of recombinant USF-1 was incubated with probe in the absence of unlabeled competitor oligonucleotides. In lane 3, 30 ng of phospho-USF-1 was incubated with probe in the absence of unlabeled competitor oligonucleotides. In lanes 4-6, phospho-USF-1 was pre-incubated with 500 molar excess of: unlabeled probe, USF-1 specific competitor, and non-specific poly (dIdC) competitor oligonucleotides, respectively. Incubation of the phosphorylated form of USF-1 with the probe caused a shift on the gel that was abolished by the addition of unlabeled specific competitor oligonucleotides (FIG. 3C, lanes 3 and 5).
Synthetic double-stranded oligonucleotides (Integrated DNA Technologies) corresponding to a wild type (R) or variant (RV) 28 bp tandem repeat sequence from the TS 5′ regulatory region were labeled with [γ-³²P] ATP (Amersham Pharmacia Biotech) according to the Gel-Shift Assay Kit protocol (Promega). […]

[4] = target: T1, USF-1 phosphorylated by cdc2/p34; assay: EMSA; 1 mM MgCl2, 50 mM NaCl, room temperature; details: tags: N-terminal 6xHis (pProEX-HTb, E. coli), in vitro phosphorylated with cdc2/p34; chain copies: 2; label: 32P
Experimental: Since the potential G→C SNP at the 12th nucleotide of the 28 bp repeats lies within the USF binding site, the ability of the recombinant USF-1 protein to bind the variant consensus element by EMSA was tested. […] Gel mobility shift analyses were performed using recombinant USF-1 with a ³²P-labeled 28 bp probe corresponding to one tandem repeat containing a G→C base change at the 12th nucleotide. Lane 1 was free probe. In lane 2, 30 ng of recombinant USF-1 was incubated with probe. In lane 3, 30 ng of phospho-USF-1 was incubated with probe.
Synthetic double-stranded oligonucleotides (Integrated DNA Technologies) corresponding to a wild type (R) or variant (RV) 28 bp tandem repeat sequence from the TS 5′ regulatory region were labeled with [γ-³²P] ATP (Amersham Pharmacia Biotech) according to the Gel-Shift Assay Kit protocol (Promega). For each gel shift reaction, 10,000 cpm of labeled probe 30 ng of recombinant USF-1 for 20 min at room temperature in a 20 μl reaction mixture containing 10 mM Tris-HCl, pH 7.5, 50 mM NaCl, 0.5 mM dithiothreitol, 0.5 mM EDTA, 4% glycerol, 1 mM MgCl₂ and 0.1 μg of poly(dIdC) DNA. Where indicated, unlabeled competitor oligonucleotides were incubated for 10 min at room temperature with nuclear extracts prior to addition of labeled probe.
Reactions using recombinant USF-1 contained ˜30 ng of either USF-1 or phospho USF-1. […]

[5] = patients with TS genotype 2R/2R (n = 8)
[6] = patients with TS genotype 2R/3R (n = 20)
[7] = patients with TS genotype 3R/3R (n = 12)

O=c1[nH]cc(F)c(=O)[nH]1 [5-FU, 5-fluorouracil]
median survival ([1]; 3R/3R carriers): 8.4 months | survival ([1]; Group A, predicted low TS expression (2R/2R, 2R/3RV, 3RV/3RV)): 10.1 months | Clinical Response: Stable Disease ([1]; Group A, predicted low TS expression: 2R/2R, 2R/3RV, 3RV/3RV (n = 21)): 4 (19%) | survival ([1]; Group B, predicted high TS expression (2R/3R, 3R/3RV, 3R/3R)): 7.4 months | Clinical Response: Stable Disease ([1]; Group B, predicted high TS expression: 2R/3R, 3R/3R, 3R/3RV (n = 19)): 7 (37%) | median survival ([1]; heterozygous group (2R/3R)): 7.4 months | median survival ([1]; patients with TS genotype 2R/2R): 16.2 months | Clinical Response: Progression [1, 5]: 3 (37%) | Clinical Response: Stable Disease [1, 5]: 1 (13%) | Clinical Response: Progression [1, 6]: 12 (60%) | Clinical Response: Stable Disease [1, 6]: 5 (25%) | disease response (patients responding/total) ([1]; patients with TS genotype 3R/3R): 0/12 | Clinical Response: Progression [1, 7]: 7 (58%) | Clinical Response: Response [1, 7]: 0 (0%) | Clinical Response: Stable Disease [1, 7]: 5 (42%)

B1: USF-1 consensus oligonucleotide (dsDNA)
DNA 1: CACCCGGTCACGTGGCCTACACC
DNA 2: GGTGTAGGCCACGTGACCGGGTG
binding result [2]: binds

B2: TS wild-type tandem repeat (R) (dsDNA)
DNA 1: CCGCGCCACTTGGCCTGCCTCCGTCCCG
DNA 2: CGGGACGGAGGCAGGCCAAGTGGCGCGG
binding result [3]: binds

B3: TS variant tandem repeat (RV) (dsDNA)
DNA 1: CCGCGCCACTTCGCCTGCCTCCGTCCCG
DNA 2: CGGGACGGAGGCAGGCGAAGTGGCGCGG
binding result [4]: no binding
